# From patent publication US20220081389A1, “AMIDE COMPOUNDS AND PREPARATION METHOD THEREFOR AND USE THEREOF” (CAC NANTONG CHEMICAL CO., LTD., priority 2019, published 2022)
# Where two headings read alike, the source gives them in different places.
# Key:
# [1] = test system: Spodoptera litura; experiment: Insecticidal activity test against Spodoptera litura (leaf dip, cabbage leaf discs); format: in vivo; conditions: foliar; for mortality at 0.4 ppm: 3rd day after treatment; for mortality at 0.04 ppm / mortality at 0.1 ppm: 72 h, 3 d
# Method: (§1) Various kinds of pests were tested with the compounds of this invention. Unless otherwise specified, the preparation method of samples and definition of the mortality rate of the insects in the embodiments and this invention are as follows: the preparation method of samples is to weigh 10 mg of the compound and dissolve it in 1 mL DMF to prepare 10,000 ppm mother liquid, which is diluted to necessary concentration by 0.05% Tween-80 water, respectively. The mortality rate is the mortality rate of pests under the test concentration, whose calculating formula is: mortality rate (%)=Number of dead pests/total pests*100
# The leaf dip method was used to assay the insecticidal activity. Healthy and pesticide-untreated cabbage leaves was selected to prepare 1 cm of leaf discs by diameter. Dip the leaf discs into the solution prepared with compound of this invention for 10 seconds and dry them in a cool […] environment. Then place them in 24-well plate with 3 discs per pore. Put 10 of Spodoptera litura into each pore, which was repeated by 3 times. The 24-well plate was placed in an illumination incubator and incubated with 14 hL: 10 hD illumination at 25° C. The dead number of Spodoptera litura was investigated on the 3rd day after treatment, and the mortality was calculated.
# [2] = test system: Mythimna separata; experiment: Insecticidal activity test against Mythimna separata (leaf dip, maize seedlings); format: in vivo; conditions: foliar; for mortality at 0.04 ppm: 3rd day after treatment, read-out: insecticidal activity (mortality of Mythimna separate)
# Method: as §1
# (§2) The leaf dip method was used to assay the insecticidal activity. Cut above ground part of fresh maize seedlings (about 10 cm). Dip the maize seedlings into the solution prepared with compound of this invention for 10 seconds and dry them in a cool environment. Then cut the dry maize seedlings into 3-5 cm leaf sections and put 3 leaf sections into each petri dish. Put ten of 3th-instar larvae of Mythimna separatas into each dish, which was repeated by 3 times. Then the dishes were placed in an illumination incubator and incubated with 14 hL: 10 hD illumination at 25° C. Symptoms were investigated on the 1st, 2nd and 3rd day after treatment, and the mortality was calculated.
# [3] = test system: Chilo suppressalis; experiment: Insecticidal activity test against Chilo suppressalis (rice stem dip); format: in vivo
# Method: as §1
# The rice was cultivated in a plastic pot with a diameter of 9 cm and a height of 10 cm. When the rice grew to 25 cm, the aerial part of robust and consistent rice seedlings was selectively cut. Their leaves were removed and their stems of about 8 cm were kept for use. Pour the solution prepared with compound of this invention into the Petri dish (about 40 mL) and dip the rice stems into the solution for 10 seconds. Take rice stems out and dry them in a cool environment. Put a wet cotton ball at the bottom of finger-like glass tube and 5 rice stems in each tube. Put 10 of 3rd-instar larvae of Chilo suppressa into each tube, which was repeated by 3 times. Seal the tubes with black cotton cloth and tighten them with rubber band. The tubes were placed in a illumination incubator at 28° C. and incubated in the dark (incubated without light). The dead number of Chilo suppressalis was investigated 3 days after treatment. The mortality was calculated.
# [4] = test system: Spodoptera frugiperda; experiment: Insecticidal activity test against Spodoptera frugiperda (leaf dip, maize seedlings); format: in vivo; conditions: for mortality at 1 ppm / mortality at 0.1 ppm: Spodoptera frugiperda, foliar; for mortality at 1 ppm: read-out: insecticidal activity (mortality of Spodoptera frugiperda); for Mortality (%) against Spodoptera frugiperda, 1 d / Mortality (%) against Spodoptera frugiperda, 2 d / Mortality (%) against Spodoptera frugiperda, 3 d: 0.1 ppm, leaf dip, 3rd-instar larvae; for Mortality (%) against Spodoptera frugiperda, 1 d: 1st day after treatment; for Mortality (%) against Spodoptera frugiperda, 2 d: 2nd day after treatment; for Mortality (%) against Spodoptera frugiperda, 3 d: 3rd day after treatment
# Method: as §1
# as §2, with “Spodoptera frugiperda” for “Mythimna separatas”
# [5] = test system: Aphis craccivora; experiment: Insecticidal activity test against Aphis craccivora (broad bean leaf dip); format: in vivo
# Method: as §1
# Cut a single leaf of broad bean with stem and insert it into a glass jar filled with water (capacity of 20 ml). Five adult Aphis craccivoras were seeded onto each leaf, and covered with plastic cups with holes. The adult aphids were removed after 24 hours. Before the experiment, the base number was investigated and the single leaf with more than 15 nymphs aphids was selected for the experiment. Dip leaf of broad bean with nymphs aphids into the solution of test compound 10s, take out and dry them in a cool environment, 3 parallel repeats. Place the glass jars on the shelf of observation room and covered with plastic cups with holes. 20-25° C. with 14 hL: 10 hD illumination. The number of Aphis craccivora death and alive was investigated on the 3rd day after treatment, and the mortality was calculated.
# [6] = 3rd day after treatment, read-out: insecticidal activity (mortality of Chilo suppressalis)
# [7] = 72 h, 3 d, read-out: Mortality (%, 3 d) 1 ppm
# [8] = 72 h, 3 d, read-out: Mortality (%, 3 d) 2 ppm
# [9] = Aphis craccivora, foliar, 40 ppm, 3rd day after treatment, read-out: insecticidal activity (mortality of Aphis craccivora)
# [10] = 24 h, 1 d, read-out: Mortality (%) 1 d
# [11] = 48 h, 2 d, read-out: Mortality (%) 2 d
# [12] = 72 h, 3 d, read-out: Mortality (%) 3 d
# [13] = 24 h, read-out: Mortality (%) against Spodoptera frugiperda, 1 d
# [14] = 48 h, read-out: Mortality (%) against Spodoptera frugiperda, 2 d
# [15] = 72 h, read-out: Mortality (%) against Spodoptera frugiperda, 3 d
compound,measurement,setting,value
"O=C(Nc1c(Br)cc(C(F)(C(F)(F)F)C(F)(F)F)cc1OC(F)F)c1cccc(N(CC2CC2)C(=O)c2ccccc2)c1F [Compound 1, N-(2-bromo-4-(perfluoropropan-2-yl)-6-(difluoromethoxy)phenyl)-3-(N-(cyclopropylmethyl)benzamido)-2-fluorobenzamide]",mortality at 0.4 ppm,[1],≥ 90%
same,mortality at 0.04 ppm,[2],≥ 90%
same,mortality at 1 ppm,[3]; [6],≥ 90%
same,mortality at 0.5 ppm,"[3]; 72 h, 3 d",76.7%
same,mortality at 1 ppm,[3]; [7],96.7%
same,mortality at 2 ppm,[3]; [8],100%
same,mortality at 1 ppm,[4],≥ 90%
N#Cc1ccc(C(=O)N(CC2CC2)c2cccc(C(=O)Nc3c(Br)cc(C(F)(C(F)(F)F)C(F)(F)F)cc3OC(F)F)c2F)cc1 [Compound 14],"Mortality (%) against Spodoptera frugiperda, 1 d",[4],29.17%
same,"Mortality (%) against Spodoptera frugiperda, 2 d",[4],79.17%
same,"Mortality (%) against Spodoptera frugiperda, 3 d",[4],95.83%
"N#Cc1ccc(C(=O)N(CC2CC2)c2cccc(C(=O)Nc3c(Br)cc(C(C(F)(F)F)C(F)(F)F)cc3OC(F)F)c2F)cc1 [Compound 26, N-(2-bromo-6-(difluoromethoxy)-4-(1,1,1,3,3,3-hexafluoropropan-2-yl)phenyl)-3-(4-cyano-N-(cyclopropylmethyl)benzamido)-2-fluorobenzamide]",melting point,,133.1 to 135.5 °C
"O=C(Nc1c(Br)cc(C(F)(C(F)(F)F)C(F)(F)F)cc1OC(F)F)c1cccc(N(CC2CC2)C(=O)c2ccc(F)cc2)c1F [Compound 31, N-(2-bromo-6-(difluoromethoxy)-4-(perfluoropropan-2-yl)phenyl)-3-(N-(cyclopropylmethyl)-4-fluorobenzamido)-2-fluorobenzamide]",mortality at 40 ppm,[5]; [9],≥ 90%
same,mortality at 0.4 ppm,[1],≥ 90%
same,mortality at 0.04 ppm,[2],≥ 90%
same,mortality at 0.01 ppm,[2]; [10],13.3%
same,mortality at 0.01 ppm,[2]; [11],63.3%
same,mortality at 0.01 ppm,[2]; [12],70%
same,mortality at 1 ppm,[3]; [6],≥ 90%
same,mortality at 0.5 ppm,"[3]; 72 h, 3 d",83.3%
same,mortality at 1 ppm,[3]; [7],100%
same,mortality at 2 ppm,[3]; [8],100%
same,mortality at 0.1 ppm,[4]; [13],100%
same,mortality at 0.1 ppm,[4]; [14],100%
same,mortality at 0.1 ppm,[4]; [15],100%
same,mortality at 1 ppm,[4],≥ 90%
O=C(Nc1c(Br)cc(C(F)(C(F)(F)F)C(F)(F)F)cc1OC(F)F)c1cccc(N(CC2CC2)C(=O)c2ccc(Cl)cc2)c1F [Compound 44],"Mortality (%) against Spodoptera frugiperda, 1 d",[4],37.50%
same,"Mortality (%) against Spodoptera frugiperda, 2 d",[4],62.50%
same,"Mortality (%) against Spodoptera frugiperda, 3 d",[4],91.67%
O=C(Nc1c(Br)cc(C(F)(C(F)(F)F)C(F)(F)F)cc1C(F)(F)F)c1cccc(N(CC2CC2)C(=O)c2ccncc2)c1F [Compound 101],"Mortality (%, 3 d) 1 ppm","[5]; 1 ppm, 3 d",39.11%
same,"Mortality (%, 3 d) 10 ppm","[5]; 10 ppm, 3 d",83.26%
same,"Mortality (%, 3 d) 40 ppm","[5]; 40 ppm, 3 d",100.00%
"O=C(Nc1c(Br)cc(C(F)(C(F)(F)F)C(F)(F)F)cc1C(F)(F)F)c1cccc(N(CC2CC2)C(=O)c2ccc(F)nc2)c1F [Compound 106, N-(3-((2-bromo-4-(perfluoropropan-2-yl)-6-(trifluoromethyl)phenyl)carbamoyl)-2-fluorophenyl)-N-(cyclopropylmethyl)-6-fluoronicotinamide]",mortality at 0.4 ppm,[1],≥ 90%
same,mortality at 0.04 ppm,[2],≥ 90%
same,mortality at 1 ppm,[3]; [6],≥ 90%
same,mortality at 0.1 ppm,[4]; [13],41.7%
same,mortality at 0.1 ppm,[4]; [14],62.5%
same,mortality at 0.1 ppm,[4]; [15],95.8%
same,mortality at 1 ppm,[4],≥ 90%
"O=C(Nc1c(Br)cc(C(F)(C(F)(F)F)C(F)(F)F)cc1OC(F)F)c1cccc(N(CC2CC2)C(=O)c2ccc(F)nc2)c1F [Compound 118, N-(3-((2-bromo-6-(difluoromethoxy)-4-(perfluoropropan-2-yl)phenyl)carbamoyl)-2-fluorophenyl)-N-(cyclopropylmethyl)-6-fluoronicotinamide]",mortality at 40 ppm,[5]; [9],≥ 90%
same,mortality at 0.4 ppm,[1],≥ 90%
same,mortality at 0.04 ppm,[1],66.7%
same,mortality at 0.1 ppm,[1],95.8%
same,mortality at 0.04 ppm,[2],≥ 90%
same,mortality at 1 ppm,[3]; [6],≥ 90%
same,mortality at 0.1 ppm,[4]; [13],29.2%
same,mortality at 0.1 ppm,[4]; [14],66.7%
same,mortality at 0.1 ppm,[4]; [15],91.7%
same,mortality at 1 ppm,[4],≥ 90%
O=C(Nc1c(Br)cc(C(F)(C(F)(F)F)C(F)(F)F)cc1OC(F)F)c1cccc(N(CC2CC2)C(=O)c2ccnc(Cl)c2)c1F [Compound 119],"Mortality (%) against Spodoptera frugiperda, 1 d",[4],54.17%
same,"Mortality (%) against Spodoptera frugiperda, 2 d",[4],79.17%
same,"Mortality (%) against Spodoptera frugiperda, 3 d",[4],91.67%
O=C(Nc1c(Br)cc(C(F)(C(F)(F)F)C(F)(F)F)cc1OC(F)F)c1cccc(N(CC2CC2)C(=O)c2ccnc(F)c2)c1F [Compound 120],"Mortality (%) against Spodoptera frugiperda, 1 d",[4],58.33%
same,"Mortality (%) against Spodoptera frugiperda, 2 d",[4],100%
same,"Mortality (%) against Spodoptera frugiperda, 3 d",[4],100%
"CC(C1CC1)N(C(=O)c1ccnc(Cl)c1)c1cccc(C(=O)Nc2c(Br)cc(C(F)(C(F)(F)F)C(F)(F)F)cc2C(F)(F)F)c1F (stereo not drawn) [Compound 124, N-(3-((2-bromo-4-(perfluoropropan-2-yl)-6-(trifluoromethyl)phenyl)carbamoyl)-2-fluorophenyl)-2-chloro-N-(1-cyclopropylethyl)isonicotinamide]",mortality at 2 ppm,[3]; [6],≥ 90%
"CCN(C(=O)c1ccc(F)cc1)c1cccc(C(=O)Nc2c(Br)cc(C(F)(C(F)(F)F)C(F)(F)F)cc2OC(F)F)c1F [KC1, reference compound]",mortality at 0.01 ppm,[2]; [10],6.67%
same,mortality at 0.01 ppm,[2]; [11],16.7%
same,mortality at 0.01 ppm,[2]; [12],20%
"CCN(C(=O)c1ccncc1)c1cccc(C(=O)Nc2c(Br)cc(C(F)(C(F)(F)F)C(F)(F)F)cc2OC(F)F)c1F [KC2, reference compound]",mortality at 0.1 ppm,[4]; [13],0%
same,mortality at 0.1 ppm,[4]; [14],8.33%
same,mortality at 0.1 ppm,[4]; [15],20.8%
"O=C(Nc1c(Br)cc(C(F)(C(F)(F)F)C(F)(F)F)cc1OC(F)(F)F)c1cccc(N(CC2CC2)C(=O)c2ccccc2)c1F [KC3, reference compound]",mortality at 0.5 ppm,"[3]; 72 h, 3 d",20%
same,mortality at 1 ppm,[3]; [7],80%
same,mortality at 2 ppm,[3]; [8],96.7%
same,mortality at 0.1 ppm,[4]; [13],0%
same,mortality at 0.1 ppm,[4]; [14],0%
same,mortality at 0.1 ppm,[4]; [15],4.17%
"O=C(Nc1c(Br)cc(C(F)(C(F)(F)F)C(F)(F)F)cc1C(F)(F)F)c1cccc(N(CC2CC2)C(=O)c2ccc(F)cc2)c1F [KC4, reference compound]",mortality at 1 ppm,"[5]; Aphis craccivora, foliar, 72 h, 1 ppm, 3 d",0%
same,mortality at 10 ppm,"[5]; Aphis craccivora, foliar, 72 h, 10 ppm, 3 d",47.1%
same,mortality at 40 ppm,"[5]; Aphis craccivora, foliar, 72 h, 40 ppm, 3 d, read-out: Mortality (%, 3 d) 40 ppm",65.2%
same,mortality at 0.04 ppm,[1],8.83%
same,mortality at 0.1 ppm,[1],75%
